Tests used:
MMP-9 [1] = assay: Inhibition constant for MMP-9; assay type: biochemical; settings: more potent than the parent compound
[2] = test system: controlled cortical impact TBI at p21; assay: Open field test at adulthood after TBI at p21; assay type: in vivo, male C57Bl/6J mice; settings: 25 mg/kg s.c. at 2, 4, 24, 48 h post-injury; tested ~2 months post-injury
Description: (§1) The controlled cortical impact model of TBI was used as previously described. TBI to the p21 mouse approximates a toddler-aged child, based upon the structural, biochemical and behavioral characteristics of this age. Pups were anaesthetized with 1.25% 2,2,2-tribromoethanol (Avertin; Sigma-Aldrich, St. Louis, MO) in isotonic saline (i.p. bolus at 0.02 mL/g body weight). After craniotomy, mice were subjected to a controlled cortical impact at 4.5 m/s velocity and 1.73 mm depth of penetration, for a sustained depression of 150 ms, using a 3.0 mm convex impactor tip. Mice were maintained on a water-circulating heating pad throughout surgery and recovery. Following impact, the scalp was closed with sutures and each animal administered 0.5 ml of isotonic saline subcutaneously (s.c.) to prevent post-operative dehydration. Sham-operated mice underwent identical surgical procedures, including craniotomy, without receiving the cortical impact. All mice were closely monitored for 1–2 hours post-surgery until return of the righting reflex and full mobilization. Mice were then returned to group-housing, and weighed post-surgery at days 1, 3, and weekly thereafter till the end of the study.
The treatment regime was based upon several considerations. […]
Exploratory behaviors were assessed over a 10 min session in an automated open field arena (40.6 cm x 40.6 cm; Kinder Scientific, Poway, CA). […]

[3] = test system: controlled cortical impact TBI at p21; assay: Elevated plus maze at adulthood after TBI at p21; assay type: in vivo, male C57Bl/6J mice; settings: 25 mg/kg s.c. at 2, 4, 24, 48 h post-injury; tested ~2 months post-injury
Description: as §1, with “Mice were then returned to group-housing, and weighed post-surgery at days 1, 3, and weekly thereafter till the end of the study.” left out
The elevated plus maze (Kinder Scientific, Poway, CA) assesses anxiety based upon the natural tendency of rodents to avoid the open arms in preference for enclosed areas. […] Times spent in the open versus closed arms was assessed as previously described.

[4] = test system: controlled cortical impact TBI at p21; assay: Three-chamber social approach task at adulthood after TBI at p21; assay type: in vivo, male C57Bl/6J mice; settings: 25 mg/kg s.c. at 2, 4, 24, 48 h post-injury
Description: as §1, with “study. […]” for “study.”
The three-chamber paradigm allows for the evaluation of social affiliation and social recognition in mice. […] Data were expressed as time spent in each chamber (% of total time).

[5] = test system: controlled cortical impact TBI at p21; assay: Stereological volumes and hippocampal cell counts at adulthood after TBI at p21; assay type: in vivo, male C57Bl/6J mice; settings: ~2 months post-injury
Description: as §1
The treatment regime was based upon several considerations. […] Thirdly, we limited treatment to a period of 48 h post-injury in order to minimize potential off-target effects on ongoing brain development processes at this time, given the known roles that these gelatinases play in postnatal synaptic maturation. For acute studies (gelatin zymography and histology) animals were euthanized at 4 hours and for in situ zymography, they were euthanized 1 hour after the last injection. For long-term studies (behavioral and cognitive assessments and histology) animals were euthanized at ~2 months post-injury. Euthanasia was by overdose with 2.5% Avertin i.p. followed by decapitation or cardiac transperfusion as described below.
Upon completion of behavioral and cognitive assessments at ~ 2 months post-injury, anesthetized mice were perfused transcardially with ice-cold saline followed by 4% paraformaldehyde in 0.1M PBS. Collected brains were post-fixed overnight in 4% PFA and then transferred into a 30% sucrose solution for 72 h before being embedded in Neg50^TM (Richard-Allan Scientific, Thermo Fisher Scientific, Fremont, CA). Serial coronal sections spanning the entire cortex were cut at 20 μm or 40 μm (for time points of 48 h or 2 months post-injury, respectively).
An estimation of intact cortical and hippocampal volumes was performed on 40 μm coronal sections stained with cresyl violet, collected at ~ 2 months post-injury. The unbiased Cavalieri method was performed with StereoInvestigator software (MicroBrightField v10.21.1, Williston, VT, USA), using a Nikon E600W microscope configured with a motorized stage, MAC 5000 controller and Retiga 2000R color digital camera (QImaging, Surrey, BC, Canada). Spanning Bregma 1.5 to -3.8 mm, 12–16 sections containing cortex and 7–10 sections containing hippocampus were assessed per brain, using a sampling interval of 8 and a grid size of either 200 μm or 75 μm for cortex and hippocampus, respectively. Measurements were confined to the dorsal hemispheres as previously described using a 2x objective for the cortex and 4x for the hippocampus. The Gundersen mean coefficient of error (m = 1) was maintained ≤0.03 for cortical volume estimates and ≤0.08 for the hippocampus and dentate gyrus (DG). Group means are expressed as estimated volume (mm³). Certain sections were excluded from stereological analyses due to poor tissue integrity, folding or incomplete staining. In these cases, the section was deemed to be ‘missing’ and estimation for this section was calculated from the StereoInvestigator program based upon the adjacent sections. This was permitted for a maximum of 2 non-adjacent sections per brain. […]

MMP-2 = settings: cited from earlier work
MMP-9 [6] = settings: cited from earlier work

O=S(=O)(CC1CS1)c1ccc(Oc2ccc(O)cc2)cc1 (stereo not drawn) [p-OH SB-3CT]
potency at inhibiting MMP-9 relative to parent compound SB-3CT (MMP-9 [1]): 2.5 fold | injury-induced hyperactivity (total distance traveled, open field) [2]: did not ameliorate this hyperactivity | percentage time spent in the center of the open field (anxiety-like behavior) [2]: neither TBI nor p-OH SB-3CT treatment affected this measure | time spent in the open arms of the elevated plus maze [3]: not affected by either TBI or p-OH SB-3CT treatment | three-chamber task stage 2, preference for sociability ([4]; groups = injury or drug treatment): no overall differences between groups | three-chamber task stage 3, lack of preference for social novelty after TBI ([4]; tested at adulthood): not rescued by p-OH SB-3CT | contralateral cortical volume ([5]; TBI groups or sham groups compared): did not alter contralateral cortical volumes | ipsilateral hippocampal volume, TBI mice vs vehicle-treated ([5]; TBI, p = 0.0835): reduced hippocampal volumes, that did not reach statistical significance | contralateral dentate gyrus volume ([5]; sham and TBI mice): did not affect contralateral DG volume | contralateral hippocampus volume ([5]; sham or TBI brains): did not affect the contralateral hippocampus volume | ipsilateral dentate gyrus volume ([5]; sham or TBI groups): no effect of drug treatment | ipsilateral cortical volume ([5]; sham or injured animals): did not influence ipsilateral cortical volumes | ipsilateral hippocampal volume, sham mice vs vehicle-treated sham ([5]; sham, p = 0.0669): tended to exhibit larger hippocampal volumes | Ki (MMP-2): 6 ± 3 nM | Ki (MMP-9 [6]): 160 ± 80 nM

From article PMC4654502, “Early Gelatinase Activity Is Not a Determinant of Long-Term Recovery after Traumatic Brain Injury in the Immature Mouse” (PLoS ONE, 2015)
